# Entries after “also recorded” stand apart in the source; their conditions may differ.
# How the values were obtained:
# [1] = assay type: physicochemical
# From the text: (§1) [drawing 2] is a selective, orally bioavailable PKR Activating Compound that decreases 2,3-DPG, increases ATP, and has anti-sickling effects in disease models with a wide therapeutic margin relative to preclinical toxicity. Compound 1 is a potent activator of PKR and a multi-modal metabolic modulator of RBCs. Activation of PKR simultaneously reduces 2,3-DPG concentrations, which increases hemoglobin-oxygen affinity and decreases sickling, while also increasing intracellular ATP, which improves RBC health and reduces hemolysis, or RBC death. Compound 1 is a BCS class II compound with poor water solubility and high permeability.
# Log D7.4 = assay type: physicochemical; conditions: pH 7.4
# From the text: as §1
# [2] = system: estradiol and testosterone levels; test: Circulating estradiol and testosterone in healthy subjects, 14 days; assay type: in vivo, human; conditions: up to 14 days, 100-300 mg BID or 400 mg QD
# Method: Effects on circulating levels of estradiol and testosterone in male and female healthy subjects receiving Compound 1 or placebo for a treatment period of 14 days were evaluated. Compound 1 was administered twice daily (BID) at dose levels of 100 mg, 200 mg, and 300 mg, and once daily (QD) at a dose level of 400 mg. Each dosing cohort was comprised of 9 subjects treated with Compound 1 and 3 subjects treated with placebo. Testosterone and estradiol levels were assessed prior to dosing (baseline), and then on days 8, 14 and 17.
# [3] = system: H295R adreno-cortical carcinoma cell line; test: Cell viability (MTT Kit); assay type: cell-based
# Method: To assess potential effects on steroidogenesis, Compound 1 was screened for steroid modulation in vitro using the H295R adreno-cortical carcinoma cell line (at 200 to 0.0002 μM) and in an assay to monitor cell viability (MTT Kit). Compound 1 indicated steroid modulation potential (% over vehicle) only at 200 μM, the top concentration tested, with 100% cellular viability at concentrations ≤20 μM (90% viability at 200 μM).
# sickle RBCs = test: Phase 1: Lorrca Oxygenscan in SCD patients; assay type: in vivo, human; conditions: SCD single 700 mg, Post-dose (24 hours), median (range)
# Method: In this study, SAD/MAD cohorts are randomized (3 to 1) to receive Compound 1 or placebo (P). Compound 1 was evaluated first in 4 healthy SAD cohorts and 4 healthy MAD (14-day dosing period) cohorts. Based on the safety, and PK/PD profile from HS, Compound 1 is then evaluated in 1 SCD SAD cohort and 2 SCD MAD cohorts. Specifically, based on the safety and pharmacokinetic/pharmacodynamics (PK/PD) profile in healthy volunteer studies, Compound 1 is evaluated in patients (pts) with SCD, first in a single dose (SD or SAD) cohort and then in multiple-dose (MD or MAD) cohorts (14-day and 12-week). Safety assessments include AEs, vital signs, ECGs and laboratory parameters. PK/PD blood sampling was performed on Day 1 (SAD/MAD) and Day 14 (MAD) and up to 72 h after the last dose and at the end-of-study visit. PD parameters included 2,3-DPG, ATP, and p50 in all cohorts with additional PD studies (including oxygen scan) performed only in the SCD cohorts. PD parameters included 2,3-DPG, ATP, p50, RBC deformability with controlled deoxygenation and reoxygenation (Lorrca® oxygen scan) and varying osmolality (Lorrca® osmoscan)). […]
# Functional evaluation of RBCs was performed using Laser-Optical Rotational Red Cell Analyzer (Lorrca®) technology (RR Mechatronics, Zwaag, The Netherlands). […] In brief, the Oxygenscan allows for the measurement and visualisation of RBC elongation in shear stress in an oxygen gradient, during deoxygenation and re-oxygenation, expressed as the elongation index (EI). […] Evaluated Osmoscan parameters included: EImax; Omin (osmolality at ELmax; hypotonic region), which corresponds to the value of the hypotonic osmolality at which 50% of the cells hemolyse in an osmotic fragility assay and provides information on the initial surface-to-volume ratio of the RBCs; and Ohyper (osmolality corresponding to 50% of the EImax; hypertonic region), which correlates with the initial intracellular viscosity of the cell sample. […]
# The effects of a single dose of Compound 1 (700 mg) versus placebo on oxygen scan, oxygen affinity (p50), and osmoscan in SCD patients were evaluated. […]
smiles,measurement,setting,value
"O=C([C@H](CO)c1ccccc1)N1CC2=C(C1)CN(S(=O)(=O)c1cnc3c(c1)OCCO3)C2 (single isomer, unassigned) [Compound 1]",BCS class,[1],BCS class II
same,Log D7.4,Log D7.4,1.09
same,testosterone and estradiol levels,[2],no effect on estradiol and testosterone levels; also recorded: No effect on testosterone or estradiol levels; also recorded: no statistically significant changes and no clinically meaningful trends
same,cellular viability,[3]; 200 μM,90%
same,cellular viability,[3]; concentrations ≤20 μM,100%
same,EImin (Oxygenscan),"sickle RBCs; pre-dose 0.193 (0.16, 0.21)","0.296 (0.26, 0.38)"
same,EImax (Oxygenscan),"sickle RBCs; pre-dose 0.445 (0.41, 0.51)","0.451 (0.42, 0.52)"
same,POS (Oxygenscan),"sickle RBCs; pre-dose 35.4 (27.3, 38.8)","24.0 (17.9, 31.8)"
